Laboratory results from patent publication EP0839799A1, “2-HYDROXYPHENYLALKYLAMINE DERIVATIVES AND MAILLARD REACTION INHIBITORS” (KISSEI PHARMACEUTICAL CO., LTD., priority 1995, dated 1996).

Legend:
[1] = system: lysozyme; assay: Maillard reaction inhibiting activity test (lysozyme and fructose, dimer formation by SDS-PAGE/densitometry); assay type: biochemical; conditions: lysozyme 10 mg/ml, fructose 200mM, 0.5M sodium phosphate buffer pH7.4, 37°C, 1 week, inhibition of lysozyme dimer formation; for Inhibiting Activity (%) Concentration (0.2mM): test compound 0.2mM; for Inhibiting Activity (%) Concentration (2mM): test compound 2mM
Procedure: The test compound (0.2mM or 2mM), lysozyme (lOmg/ml) and fructose (200mM) were dissolved in 0.5M sodium phosphate buffer (pH7.4), and the solution was incubated at 37°C for l week. After incubation, the sample was separated by SDS-PAGE and stained with Coomassie Brilliant Blue R-250. The percentage of formed dimer to total proteins was measured by densitometry. Inhibiting activities of the test compounds were evaluated from comparing the percentage of formed dimer in the presence of the test compound with that in the absence of the test compound.

[2] = system: Male SD rats; assay: Acute toxicity test; assay type: in vivo; conditions: for hematological examinations / death: 2000 mg/kg; for death: single administration 2000 mg/kg, until 7 days after administration
Procedure: Male SD rats, 6 weeks of age and weighing between 140g and 165 g, were conditioned to an overnight fast. α -Amino-2 hydroxyphenylacetic acid.hydrochloride suspended in 0.5% of CMC were given to the rats at a dosage of 2000 mg/kg. Control group rats received 0.5% of CMC alone.
Six hours after administration, all rats were allowed free access to food and water. Seven days after administration, blood samples were collected and tested with hematological examinations. Plasma samples were tested with blood biochemical examinations.

[3] = system: AGE content in plasma proteins; assay: Inhibition assay for AGE formation in vivo (AGE content in plasma proteins by ELISA using anti-AGE antibody); design: species or system male SD rats; conditions: STZ-induced diabetic rats, 4 weeks, relative to untreated rats (as 100% control)
Procedure: Diabetes was induced in male SD rats, 6 weeks of age, by intravenous single injection of streptozotocin (STZ) (50mg/kg) into tail. One week after diabetes induction, α -amino-2-hydroxyphenylacetic acid.hydrochloride or aminoguanidine was given to the diabetic rats by daily oral administration at dosage of 50mg/kg or lOOmg/kg. After 4 weeks of administration, blood samples were collected and AGE content in plasma proteins was measured by ELISA using anti-AGE antibody. AGE content in drug-treated rats were estimated compared with the average content of untreated rats (as 100% control).

[4] = system: Male SD rats; assay: Toxicity test by long-term administration; assay type: in vivo
Procedure: Male SD rats, 6 weeks of age, received STZ (50mg/kg) by single intravenous injection into the tail and were made diabetic. One week after STZ injection, α -amino-2-hydroxyphenylacetic acid-hydrochloride suspended in 0.5% of CMC was given to the diabetic rats by daily oral administration at a dosage of lOOmg/kg. Rats in the control group received O.5% of CMC alone. Compared with the control group, significant reduction in weight and significant increase in number of dead animals were not observed until ten weeks after administration.

[5] = STZ diabetic rats, 100mg/kg daily oral, until ten weeks, versus control group

Structure (SMILES) | Inhibiting Activity (%) Concentration (0.2mM) [1] [%] | Inhibiting Activity (%) Concentration (2mM) [1] [%] | further results
NC(C(=O)O)c1ccccc1O (single isomer, unassigned) [Example 12, α -Amino-2-hydroxyphenylacetic acid (optical isomer)] | 22.4 | 83.5 | 
NC(C(=O)O)c1ccccc1O (single isomer, unassigned) [Example 13, α -Amino-2-hydroxyphenylacetic acid (optical isomer)] | 24.0 | 86.3 | 
Cl.NC(C(=O)O)c1ccccc1O (stereo not drawn) [Example 1, α -Amino-2-hydroxyphenylacetic acid.hydrochloride] | 21.2 | 86.1 | blood biochemical examinations ([2]; 2000 mg/kg single dose, seven days after administration, versus control group): no significant difference was observed; hematological examinations ([2]; 2000 mg/kg single dose, seven days after administration, versus control group, listed as α -Amino-2 hydroxyphenylacetic acid.hydrochloride): no significant difference was observed; hematological examinations ([2]; 2000 mg/kg single dose, seven days after administration, versus control group, listed as α -amino-2-hydroxyphenylacetic acid hydrochloride): a significant effect was not observed; behavior disorder ([2]; 2000 mg/kg single dose, until 6 hours after administration): behavior disorder was not observed; death ([2]; listed as α -Amino-2 hydroxyphenylacetic acid.hydrochloride): all animals did not die; death ([2]; listed as α -amino-2-hydroxyphenylacetic acid hydrochloride): no death was observed; AGE content ([3]; 50 mg/kg daily oral): 81.6%; AGE content ([3]; 100mg/kg daily oral): 62.4%; increase in number of dead animals [4, 5]: not observed; reduction in weight [4, 5]: not observed; toxicity and side effects ([4]; rats, 100mg/kg/day for ten consecutive weeks): significant toxicity and side effects were not observed
COC(=O)C(N)c1ccccc1O.Cl (stereo not drawn) [Example 2, Methyl α -amino-2-hydroxyphenylacetate-hydrochloride] | 30.6 | 67.5 | 
Cl.NC(C(=O)O)c1cc(Cl)ccc1O (stereo not drawn) [Example 3, α -Amino-5-chloro-2-hydroxyphenylacetic acid-hydrochloride] | 38.8 | 88.4 | 
COc1ccc(O)c(C(N)C(=O)O)c1.Cl (stereo not drawn) [Example 4, α -Amino-2-hydroxy-5-methoxyphenylacetic acid-hydrochloride] | 30.9 | 87.4 | 
COC(=O)C(N)c1cc(O)ccc1O (stereo not drawn) [Example 5, Methyl α -amino-2,5-dihydroxyphenylacetate] |  | 48.3 | 
CN(C)C(=O)C(N)c1ccccc1O (stereo not drawn) [Example 6, N,N-Dimethyl-α -amino-2-hydroxyphenylacetamide] | 13.0 | 82.1 | 
NC(=O)C(N)c1ccccc1O (stereo not drawn) [Example 7, α -Amino-2-hydroxyphenylacetamide] | 38.7 | 89.3 | 
Cl.NC(C(=O)NCc1ccccc1)c1ccccc1O (stereo not drawn) [Example 8, N-Benzyl-α-amino-2-hydroxyphenylacetamide-hydrochloride] | 13.9 | 55.3 | 
Cl.NC(C(=O)NCCc1ccccc1)c1ccccc1O (stereo not drawn) [Example 9, N-(2-Phenethyl)-α-amino-2-hydroxyphenylacetamidehydrochloride] |  | 80.0 | 
NC(CC(=O)O)c1ccccc1O (centres unmarked) [Example 10, 3-Amino-3-(2-hydroxyphenyl)propionic acid] | 15.0 |  | 
Cl.NC(=O)C(N)c1ccccc1O (stereo not drawn) [Example 14, α -Amino-2-hydroxyphenylacetamide-hydrochloride] | 21.4 | 87.6 | 
CC(C)OC(=O)CCC(N)c1ccccc1O.Cl (centres unmarked) [Example 15, Isopropyl 4-amino-4-(2-hydroxyphenyl)butyrate.hydrochloride] | 2.7 |  | 
N=C(N)NN [aminoguanidine, reference compound] | 2.9 | 17.2 | AGE content ([3]; aminoguanidine daily oral, dose not stated in the table (50mg/kg or 100mg/kg per method)): 88.8%
